The source of these data is paper PMC12661054, “The CIP2A-TOPBP1 axis facilitates mitotic DNA repair via MiDAS and MMEJ” (Nature Communications, 2025).

Test [1] has as its system eGFP-SLX4 interaction with TOPBP1, MUS81, ERCC1. As to the kind of experiment: eGFP-SLX4 co-immunoprecipitation, mitotic HEK293TN cells. The test is classed as cell-based, human. As to conditions: eGFP-SLX4 Co-IP; RO-3306 7 µM, 30 min, nocodazole-synchronised. On the procedure:
(§1) GFP-Trap® Agarose Co-immunoprecipitation
(§2) HEK293TN cells were seeded to be ~25–30% confluence the next day in a 15 cm tissue culture dish. The following day cells were transfected using Lipofectamine 2000 transfection reagent (Thermo Fisher Scientific) with 24 µg of plasmid DNA encoding eGFP-SLX4 or eGFP-TOPBP1 expression cassettes following manufacturer’s instructions.
Forty eight hours post transfection cells were harvested after treatments as described, snap frozen on dry ice and stored at −80 °C. Cell pellets were removed from −80 storage and thawed on ice in 2.4 ml IP buffer 1 (100 mM NaCl, 0.2% Igepal CA-630, 1 mM MgCl2, 10% glycerol, 5 mM NaF, 50 mM Tris-HCl, pH 7.5), supplemented with EDTA Free […] protease inhibitor (Sigma Aldrich) and 25 U ml−1 Benzonase (Novagen). Cells were resuspended and rotated at 4 °C for 90 min. Benzonase was then inhibited by adjusted NaCl concentration to 200 mM and with the addition of 2 mM EDTA, followed by rotation for a further 30 min at 4 °C on a carousel. The cell suspension was then centrifuged at 16,000 x g for 25 min at 4 °C. […] The supernatant, now containing eluted material, was transferred to a new 1.5 ml microcentrifuge tube ready for downstream western blot analysis.

For test [2], the system named is eGFP-TOPBP1 interaction with SLX4, MUS81, ERCC1, BTR complex. As to the kind of experiment: eGFP-TOPBP1 co-immunoprecipitation, mitotic HEK293TN cells. Conditions: eGFP-TOPBP1 Co-IP; RO-3306 7 µM, 30 min. The test is classed as cell-based, human. On the procedure: as §1, §2
Forty eight hours post transfection cells were harvested after treatments as described, snap frozen on dry ice and stored at −80 °C. Cell pellets were removed from −80 storage and thawed on ice in 2.4 ml IP buffer 1 (100 mM NaCl, 0.2% Igepal CA-630, 1 mM MgCl2, 10% glycerol, 5 mM NaF, 50 mM Tris-HCl, pH 7.5), supplemented with EDTA Free […] protease inhibitor (Sigma Aldrich) and 25 U ml−1 Benzonase (Novagen). Cells were resuspended and rotated at 4 °C for 90 min. Benzonase was then inhibited by adjusted NaCl concentration to 200 mM and with the addition of 2 mM EDTA, followed by rotation for a further 30 min at 4 °C on a carousel. The cell suspension was then centrifuged at 16,000 x g for 25 min at 4 °C. In parallel, 20 µl agarose binding control bead (bab, Chromotek) slurry was washed with 500 µl IP buffer 2 (200 mM NaCl, 0.2% Igepal CA-630, 1 mM MgCl2, 10% glycerol, 5 mM NaF, 2 mM EDTA, 50 mM Tris-HCl, pH 7.5). The binding control beads were then centrifuged at 2500 x g for 2 min. The supernatant was then removed and the IP2 wash was repeated twice more. Cell lysates (soluble supernatant) were then collected added to the agarose binding control beads in 15 ml centrifuge tubes and subsequently rotated at 4 °C on carousel for 60 min. The agarose binding control beads were then pelleted by centrifugation at 2000 x g for 2 min, the supernatant was then transferred to a new tube. BCA assay was then carried out to determine the protein concentration of the pre-cleared cell lysate. […] The supernatant, now containing eluted material, was transferred to a new 1.5 ml microcentrifuge tube ready for downstream western blot analysis.

With `O=C1NC(=NCc2cccs2)S/C1=C\c1ccc2ncccc2c1` [CDK1i], in test [1], the “SLX4 Thr1260 phosphorylation and binding of TOPBP1” value was “reduced SLX4 phosphorylation of Thr1260 and binding of TOPBP1”; the “eGFP-SLX4 interaction with MUS81 or ERCC1” value is “did not affect its interaction with MUS81 or ERCC1”. In test [2], the “interaction between TOPBP1 and MUS81 or ERCC1” value is “disrupted the interaction between TOPBP1 and MUS81 or ERCC1”; the “interaction between TOPBP1 and components of the BTR complex” value was “did not affect the interaction between TOPBP1 and components of the BTR complex”; the “interaction between eGFP-TOPBP1 and SLX4” value is “hindered the interaction between eGFP-TOPBP1 and SLX4”.
